Tests used:
HCT116 cells = experiment: inhibition of cell proliferation of HCT116 cells (14C-thymidine incorporation); type: cell-based; conditions: Homo sapiens, HCT-116, HCT116, 96 hours
Protocol: The antiproliferative activity of the products of the examples of Table 1 was determined by measuring the inhibition of cell proliferation of HCT116 cells. The cells are inoculated in a cell culture medium at a concentration of 10 000 cells per well, in 0.17 mL of medium, and 20 μL of test product, at various concentrations, and 10 μL of thymidine [methyl-14C] (100 μCi/ml—specific activity 47.90 mCi/mmol; NEN Technologies reference NEC568 batch 3550-001) are added, and the cells are then incubated at 37° C. and 5% CO2.
Medium used for the HCT116 cell culturing: DMEM medium 2 mM L-glutamine, 200 IU/ml penicillin, 200 μg/mL streptomycin and 10% (V/V) foetal calf serum (Life Technologies).
After 96 hours, the incorporation of ^14C-thymidine is counted in a 1450 Microbeta Wallac Trilux liquid scintillation counter. The results R are expressed in cpm (counts per minute) and converted to a percentage of growth inhibition GI % by first subtracting the average number of cpm for the wells without B cells and then dividing the number of cpm for the wells of the untreated cells C comprising 20 μL of product dilution medium containing 1% ethanol. (GI %=(R−B)×100/C %).
The IC50 values are calculated by means of equation 205 of the XLFit software (IDBS company, UK) via non-linear regression analysis using the Marquardt algorithm (Donald W. Marquardt, J. Soc. Industry. Appl., vol. 11, No. 2, June, 1963).

[1] = total metabolic stability (% metabolization); type: in vitro ADME; conditions: in mice
Excerpt: This compound has better total metabolic stability (11% metabolization in mice) than the product of Example 20 (99%) described in patent application WO 2006/056 696.

[2] = Caco2-TC7 permeability (Papp single point); type: in vitro ADME; conditions: human, Caco-2

SMILES | IC50 (HCT116 cells) | total metabolic stability, % metabolization [1] | Papp [2]
CO[C@@H](C(=O)N[C@H]1C[S@@+]([O-])c2ccccc2N(Cc2cc(F)cc(F)c2)C1=O)[C@H](O)[C@@H](O)[C@H](O)/C=C/C(C)(C)C [Example 1] | 9 nM |  | 
CO[C@@H](C(=O)N[C@H]1CSc2c(Cl)cc(C(F)(F)F)cc2NC1=O)[C@H](O)[C@@H](O)[C@H](O)/C=C/C(C)(C)C [Example 5, N-((3R)-9-chloro-4-oxo-7-trifluoromethyl-2,3,4,5-tetrahydro-1,5-benzothiazepin-3-yl)-(6E)-(2R,3R,4S,5R)-3,4,5-trihydroxy-2-methoxy-8,8-dimethylnon-6-enamide] | 14 nM | 11% | 2.3 ×10⁻⁶ cm/s

Continued, values first:

IC50 (HCT116 cells) | total metabolic stability, % metabolization [1] | Papp [2] | SMILES
20 nM |  |  | CO[C@@H](C(=O)N[C@H]1C[S@+]([O-])c2ccccc2N(Cc2cc(F)cc(F)c2)C1=O)[C@H](O)[C@@H](O)[C@H](O)/C=C/C(C)(C)C [Example 2]
10 nM |  |  | CO[C@@H](C(=O)N[C@H]1CSc2ccccc2N(Cc2ccccc2)C1=O)[C@H](O)[C@@H](O)[C@H](O)/C=C/C(C)(C)C [Example 3, N-[(3R)-5-benzyl-4-oxo-2,3,4,5-tetrahydro-1,5-benzothiazepin-3-yl]-(6E)-(2R,3R,4S,5R)-3,4,5-trihydroxy-2-methoxy-8,8-dimethyl non-6-enamide]
19 nM |  |  | CO[C@@H](C(=O)N[C@H]1CSc2ccccc2N(C)C1=O)[C@H](O)[C@@H](O)[C@H](O)/C=C/C(C)(C)C [Example 4, N-[(3R)-5-methyl-4-oxo-2,3,4,5-tetrahydro-1,5-benzothiazepin-3-yl]-(6E)-(2R,3R,4S,5R)-3,4,5-trihydroxy-2-methoxy-8,8-dimethylnon-6-enamide]
7 nM |  |  | CO[C@@H](C(=O)N[C@H]1CSc2ccccc2N(C)C1=O)[C@H](O)[C@@H](O)[C@H](O)/C=C/C1CCCC1 [Example 9, (2R,3R,4S,5R,6E)-7-cyclopentyl-3,4,5-trihydroxy-2-methoxy-N-[(3R)-5-methyl-4-oxo-2,3,4,5-tetrahydro-1,5-benzothiazepin-3-yl]hept-6-enamide]

— patent US7960373B2, “2-alkoxy-3,4,5-trihydroxyalkylamide-benzothiazepines preparation thereof, compositions containing them and use thereof” (Sanofi-Aventis, priority 2006, dated 2011)
